pIC50: −log10 of the molar value.
Biological target: T1, Aromatase (Homo sapiens, UniProt P11511)
T1 sequence (P11511 whole entry): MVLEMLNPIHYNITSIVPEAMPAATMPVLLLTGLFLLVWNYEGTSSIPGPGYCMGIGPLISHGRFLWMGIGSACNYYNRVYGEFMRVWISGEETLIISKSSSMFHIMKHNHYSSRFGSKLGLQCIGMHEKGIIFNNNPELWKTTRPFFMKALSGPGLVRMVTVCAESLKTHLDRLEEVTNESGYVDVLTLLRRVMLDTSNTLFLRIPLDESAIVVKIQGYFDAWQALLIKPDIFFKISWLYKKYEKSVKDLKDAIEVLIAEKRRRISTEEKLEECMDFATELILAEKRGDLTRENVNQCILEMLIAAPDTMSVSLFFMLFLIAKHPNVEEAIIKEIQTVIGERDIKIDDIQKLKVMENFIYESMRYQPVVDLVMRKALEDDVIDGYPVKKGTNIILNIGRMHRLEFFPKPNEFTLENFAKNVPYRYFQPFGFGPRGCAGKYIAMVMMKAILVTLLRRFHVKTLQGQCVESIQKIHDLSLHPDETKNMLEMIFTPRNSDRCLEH
Description: Inhibition of human aromatase

SMILES | pIC50
COc1ccc(C(=O)/C=C/c2ccc(OCC=C(C)C)cc2)c(O)c1 | < 3.57
COCOc1ccc(C(=O)/C=C/c2ccc(OCOC)c(CC=C(C)C)c2)c(O)c1 | < 3.62

From ChEMBL document CHEMBL1143702, “Synthesis and biological evaluation of (+/-)-abyssinone II and its analogues as aromatase inhibitors for chemoprevention of breast cancer” (J Med Chem, 2007)
